{"source": "patent US20240334931A1", "about": "“NEMATICIDAL COMPOSITION” (ISHIHARA SANGYO KAISHA, LTD., priority 2021, published 2024)", "format_in_all_cases": "in vivo", "key": {"[1]": {"test_system": "soybean cyst nematode (Heterodera glycines)", "assay": "Test on effects against soybean cyst nematode: treated contaminated soil, soybean pot test (Test Example 3)", "parameters": "key: 0: No parasitic cyst observed on the roots at all; 1: Parasitic cyst observed to a slight degree; 2: Parasitic cyst observed to a moderate degree; 3: Parasitic cyst observed to a heavy degree; 4: Parasitic cyst observed densely on the entire roots", "details": "10 ml poured to 200 ml contaminated soil, about one month after sowing", "description": ". The treated soil was put into a pot, three soybean seeds were sown, and the pot was placed in a greenhouse. About one month after the sowing of the soybean seeds, the parasite index was determined based on the cyst parasite level on the roots shown in Table 7."}, "[2]": {"test_system": "southern root-knot nematode (Meloidogyne incognita)", "assay": "Test on effects against southern root-knot nematode: treated contaminated soil, cucumber pot test (Test Example 1 and Comparative Test)", "parameters": "key: 0: No knot formed on the root at all; 1: Knots formed to a slight degree; 2: Knots formed to a moderate degree; 3: Knots formed to a heavy degree; 4: Knots formed to the heaviest degree", "description": "The treated soil was put into a pot, three cucumber seeds were sown, and the pot was placed in a greenhouse. Two to three weeks after the sowing of the cucumber seeds, the root knot index was determined based on the degree of formation of root knots shown in Table 5. Each composition containing Compound No. […]-192 or B-196 at a concentration of 400 ppm and the composition containing Compound No. […] [table] […] Root knot index of 2 corresponds to a state where the proportion of healthy roots is 50% or less to the entire roots, and indicates control effects to such an extent that cucumber as a crop plant to be tested cannot healthily grow."}, "[3]": {"test_system": "Cobb root-lesion nematode (Pratylenchus penetrans)", "assay": "Test on effects against Cobb root-lesion nematode: treated contaminated soil, burdock pot test (Test Example 2)", "parameters": "key: 0: No injury; 1: Slight injury; 2: Moderate injury; 3: Heavy injury; 4: Heaviest injury", "details": "800 ppm, 10 ml poured to 200 ml contaminated soil, about one month after sowing", "description": ". The treated soil was put into a pot, three burdock seeds were sown, and the pot was placed in a greenhouse. About one month after the sowing of the burdock seeds, the injury index was determined based on the root injury level shown in Table 6."}, "[4]": {"details": "400 ppm, 10 ml poured to 200 ml contaminated soil, cucumber, two to three weeks after sowing"}, "[5]": {"details": "Comparative Test, active ingredient concentration 50 ppm, otherwise as Test Example 1 (cucumber)"}}, "data": [{"smiles": "CC(C)(C(=NNC=O)c1cccc(Cl)c1)n1ccc(C(F)(F)F)n1", "note": "[A-318]", "values": [{"measurement": "parasite index", "setting": "[1]; 800 ppm", "result": 1}, {"measurement": "root knot index", "setting": "[2]; [4]", "result": 1}, {"measurement": "root knot index", "setting": "[2]; [5]", "result": 1}, {"measurement": "injury index", "setting": "[3]", "result": 1}]}, {"smiles": "O=CNN=C(c1ccc(F)cc1)C1(n2cnc(C(F)(F)F)n2)CC1", "note": "(single isomer, unassigned) [B-106]", "values": [{"measurement": "parasite index", "setting": "[1]; 400 ppm", "result": 1}, {"measurement": "root knot index", "setting": "[2]; [4]", "result": 1}]}, {"smiles": "O=CNN=C(c1ccccc1)C1(n2ccc(C(F)(F)F)n2)CC1", "note": "[B-1, N′-(phenyl(1-(3-trifluoromethyl-1H-pyrazol-1-yl)cyclopropyl)methylene) formhydrazide]", "values": [{"measurement": "parasite index", "setting": "[1]; 800 ppm", "result": 1}, {"measurement": "root knot index", "setting": "[2]; [4]", "result": 1}, {"measurement": "injury index", "setting": "[3]", "result": 1}]}, {"smiles": "COc1cccc(C(=NNC=O)C(C)(C)n2ccc(C(F)(F)F)n2)c1", "note": "[A-328]", "values": [{"measurement": "parasite index", "setting": "[1]; 800 ppm", "result": 1}, {"measurement": "root knot index", "setting": "[2]; [4]", "result": 1}]}, {"smiles": "Cc1cccc(C(=NNC=O)C(C)(C)n2cnc(C(F)(F)F)n2)c1", "note": "[A-323, N′-(2-methyl-1-(3-methylphenyl)-2-(3-trifluoromethyl-1H-triazol-1-yl)propylidene) formhydrazide]", "values": [{"measurement": "parasite index", "setting": "[1]; 800 ppm", "result": 1}, {"measurement": "root knot index", "setting": "[2]; […], cucumber, two to three weeks after sowing", "result": 1}]}, {"smiles": "CC(C)(C(=NNC=O)c1ccc(F)cc1)n1ccc(C(F)(F)F)n1", "note": "[A-107]", "values": [{"measurement": "parasite index", "setting": "[1]; 800 ppm", "result": 1}, {"measurement": "root knot index", "setting": "[2]; [4]", "result": 1}]}, {"smiles": "COCN(C=O)N=C(c1ccccc1)C1(n2cnc(C(F)(F)F)n2)CC1", "note": "[B-24]", "values": [{"measurement": "parasite index", "setting": "[1]; 800 ppm", "result": 1}]}, {"smiles": "Cc1cccc(C(=NNC=O)C(C)(C)n2ccc(C(F)(F)F)n2)c1", "note": "[A-322]", "values": [{"measurement": "parasite index", "setting": "[1]; 800 ppm", "result": 1}, {"measurement": "root knot index", "setting": "[2]; [4]", "result": 1}]}, {"smiles": "O=CNN=C(c1ccccc1)C1(n2cnc(C(F)(F)F)n2)CC1", "note": "(single isomer, unassigned) [B-3]", "values": [{"measurement": "parasite index", "setting": "[1]; 800 ppm", "result": 1}, {"measurement": "root knot index", "setting": "[2]; [4]", "result": 1}]}, {"smiles": "CN(C=O)N=C(c1ccccc1)C1(n2cnc(C(F)(F)F)n2)CC1", "note": "[B-6]", "values": [{"measurement": "parasite index", "setting": "[1]; 800 ppm", "result": 1}]}, {"smiles": "Cc1ccccc1C(=NNC=O)C1(n2ccc(C(F)(F)F)n2)CC1", "note": "[B-196]", "values": [{"measurement": "parasite index", "setting": "[1]; 800 ppm", "result": 1}, {"measurement": "root knot index", "setting": "[2]; [4]", "result": 1}]}, {"smiles": "CC(C)(C(=NNC=O)c1cccc2c1OC(F)(F)O2)n1cnc(C(F)(F)F)n1", "note": "[A-411]", "values": [{"measurement": "parasite index", "setting": "[1]; 800 ppm", "result": 1}, {"measurement": "root knot index", "setting": "[2]; [4]", "result": 1}]}, {"smiles": "CC(C)(C(=NNC=O)c1cccc(Cl)c1)n1cnc(C(F)(F)F)n1", "note": "[A-319]", "values": [{"measurement": "parasite index", "setting": "[1]; 800 ppm", "result": 1}, {"measurement": "root knot index", "setting": "[2]; [4]", "result": 1}]}, {"smiles": "CC(C)(C(=NNC=O)c1cc(F)ccc1Cl)n1cnc(C(F)(F)F)n1", "note": "[A-352]", "values": [{"measurement": "parasite index", "setting": "[1]; 800 ppm", "result": 1}, {"measurement": "root knot index", "setting": "[2]; [4]", "result": 1}]}, {"smiles": "CC(C)(C(=NNC=O)c1cccc(Cl)c1Cl)n1cnc(C(F)(F)F)n1", "note": "[A-333]", "values": [{"measurement": "parasite index", "setting": "[1]; 800 ppm", "result": 1}, {"measurement": "root knot index", "setting": "[2]; [4]", "result": 1}]}, {"smiles": "CC(C)(C(=NNC=O)c1ccccc1)n1cnc(C(F)(F)F)n1", "note": "[A-2]", "values": [{"measurement": "parasite index", "setting": "[1]; 800 ppm", "result": 1}, {"measurement": "root knot index", "setting": "[2]; [4]", "result": 1}, {"measurement": "root knot index", "setting": "[2]; [5]", "result": 0}]}, {"smiles": "CC(C)(C(=NNC=O)c1ccccc1OC(F)(F)F)n1cnc(C(F)(F)F)n1", "note": "[A-271]", "values": [{"measurement": "parasite index", "setting": "[1]; 800 ppm", "result": 1}, {"measurement": "root knot index", "setting": "[2]; [4]", "result": 1}]}, {"smiles": "CC(C)(C(=NNC=O)c1ccccc1)n1ccc(C(F)(F)F)n1", "note": "[A-1, N′-(2-methyl-1-phenyl-2-(3-trifluoromethyl-1H-pyrazol-1-yl)propylidene) formhydrazide]", "values": [{"measurement": "parasite index", "setting": "[1]; 800 ppm", "result": 1}, {"measurement": "root knot index", "setting": "[2]; [4]", "result": 1}, {"measurement": "root knot index", "setting": "[2]; [5]", "result": 1}, {"measurement": "injury index", "setting": "[3]", "result": 1}]}, {"smiles": "CN(C=O)N=C(c1ccc(Cl)cc1)C(C)(C)n1ccc(C(F)(F)F)n1", "note": "[A-91]", "values": [{"measurement": "parasite index", "setting": "[1]; 800 ppm", "result": 1}]}, {"smiles": "COCN(C=O)N=C(c1ccc(F)cc1)C(C)(C)n1ccc(C(F)(F)F)n1", "note": "[A-109]", "values": [{"measurement": "parasite index", "setting": "[1]; 800 ppm", "result": 1}]}, {"smiles": "CC(C)(C(=NNC=O)c1cccc2c1OC(F)(F)O2)n1ccc(C#N)n1", "note": "[A-416]", "values": [{"measurement": "parasite index", "setting": "[1]; 800 ppm", "result": 1}, {"measurement": "root knot index", "setting": "[2]; [4]", "result": 1}]}, {"smiles": "CC(C)(C(=NNC=O)c1cccc(F)c1)n1ccc(C(F)(F)F)n1", "note": "[A-274]", "values": [{"measurement": "parasite index", "setting": "[1]; 800 ppm", "result": 1}, {"measurement": "root knot index", "setting": "[2]; [4]", "result": 1}]}, {"smiles": "CC(C)(C(=NNC=O)c1ccc(Cl)cc1)n1ccc(C(F)(F)F)n1", "note": "[A-89]", "values": [{"measurement": "parasite index", "setting": "[1]; 800 ppm", "result": 1}, {"measurement": "root knot index", "setting": "[2]; [4]", "result": 1}]}, {"smiles": "CC(C)(C(=NNC=O)c1ccccc1C(F)(F)F)n1ccc(C(F)(F)F)n1", "note": "[A-260]", "values": [{"measurement": "parasite index", "setting": "[1]; 400 ppm", "result": 1}, {"measurement": "root knot index", "setting": "[2]; [4]", "result": 1}]}, {"smiles": "CC(C)(C(=NNC=O)c1cccc(F)c1)n1ccc(Br)n1", "note": "[A-279]", "values": [{"measurement": "parasite index", "setting": "[1]; 800 ppm", "result": 1}, {"measurement": "root knot index", "setting": "[2]; [4]", "result": 1}]}, {"smiles": "O=CNN=C(c1ccccc1)C1(n2ccc(C(F)(F)F)n2)CCC1", "note": "[B-81]", "values": [{"measurement": "root knot index", "setting": "[2]; [4]", "result": 1}]}, {"smiles": "CC(C)(C(=NNC=O)c1cccc2c1OC(F)(F)O2)n1cnc(C(F)F)n1", "note": "[A-424]", "values": [{"measurement": "root knot index", "setting": "[2]; [4]", "result": 1}]}, {"smiles": "CC(C)(C(=NNC=O)c1cccc(F)c1F)n1cnc(C(F)(F)F)n1", "note": "[A-337]", "values": [{"measurement": "root knot index", "setting": "[2]; [4]", "result": 1}]}, {"smiles": "Cc1cccc(C(=NNC=O)C(C)(C)n2ccc(Cl)n2)c1", "note": "[A-324]", "values": [{"measurement": "root knot index", "setting": "[2]; [4]", "result": 1}]}, {"smiles": "CC(C)(C(=NNC=O)c1ccccc1Cl)n1cc(C(F)(F)F)cn1", "note": "[A-216]", "values": [{"measurement": "root knot index", "setting": "[2]; [4]", "result": 1}]}, {"smiles": "O=CNN=C(c1ccc(Cl)cc1)C1(n2ccc(C(F)(F)F)n2)CC1", "note": "(single isomer, unassigned) [B-87]", "values": [{"measurement": "root knot index", "setting": "[2]; [4]", "result": 1}]}, {"smiles": "Cc1ccccc1C(=NNC=O)C(C)(C)n1cnc(Cl)n1", "note": "[A-248]", "values": [{"measurement": "root knot index", "setting": "[2]; [4]", "result": 1}]}, {"smiles": "CC(C)(C(=NNC=O)c1ccccc1Cl)n1cnc(C(F)(F)F)n1", "note": "[A-151]", "values": [{"measurement": "root knot index", "setting": "[2]; [4]", "result": 1}]}, {"smiles": "CC(C)(C(=NNC=O)c1cccc(F)c1)n1ccc(Cl)n1", "note": "[A-277]", "values": [{"measurement": "root knot index", "setting": "[2]; [4]", "result": 1}]}, {"smiles": "CC(C)(C(=NNC=O)c1cccc(F)c1F)n1ccc(C(F)(F)F)n1", "note": "[A-336]", "values": [{"measurement": "root knot index", "setting": "[2]; [4]", "result": 1}]}, {"smiles": "CC(C)(C(=NNC=O)c1cccc2c1OC(F)(F)O2)n1cnc(Cl)n1", "note": "[A-413]", "values": [{"measurement": "root knot index", "setting": "[2]; [4]", "result": 1}]}]}
